Results as given in patent US20180071317A1, “USE OF AGENTS THAT ALTER THE PERITUMORAL ENVIRONMENT FOR THE TREATMENT OF CANCER” (SERVICIO ANDALUZ DE SALUD, priority 2011, published 2018).

How the values were obtained:
[1] = system: fibroblasts (PHF) co-cultured with tumor cells of human endometrial carcinoma (AN3-CA); assay: Marker expression (IHC) in PHF co-cultured with AN3-CA tumor cells; format: cell-based; conditions: co-culture with AN3-CA; SP 1 μM + antagonist 1 μM; 48 h;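 further: cultured in fresh healthy-donor blood plasma with added antibiotic-antimycotic, run in six replicates, values give percent of fibroblasts positive for each marker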
Experimental: (§1) All cultures were maintained 48 hours, following which the same cells were included in paraffin blocks for subsequent analysis of the expression of different markers by immunohistochemistry (see Example 1). […] All experiments were carried out sixfold. Analyzed markers in fibroblast cells (stromal cells) were: TGF-α, TGF-β1, TGF-β2, TGF-β3, SPARC, MMP-3, MMP-7, MMP-9, MMP-11, MMP-13 and MMP-14.

[2] = system: macrophages in co-culture with cells isolated from primary human tumors; assay: Marker expression (IHC) in macrophages co-cultured with primary human tumor cells (colon, breast, ovarian, lung carcinoma, melanoma); format: cell-based; conditions: SP 1 μM + antagonist 1 μM;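 further: macrophages came from pleural or peritoneal washings of the patient who also supplied the tumor cells, and both were co-cultured on fresh blood plasma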
Experimental: To check that the interaction of tumor cells obtained directly from primary human immune cell/inflammatory (macrophages) cells, obtained from the patient stimulate secretion of substances by these macrophages recognized as important in survival of both cell types and in the progression of tumor cells, co-cultures were performed on fresh blood plasma, immune cell/inflammatory (macrophages) with tumor cells derived from primary tumors. All obtained from the same patient, to build an experimental model similar to human physiology.
Macrophages were obtained from washing or pleural or peritoneal from the same patient from which the primary tumor cells were obtained in each case.

[3] = system: fibroblasts (PHF) co-cultured with human glioma tumor cells (GAMG); assay: Marker expression (IHC) in PHF co-cultured with GAMG tumor cells; format: cell-based; conditions: co-culture with GAMG; SP 1 μM + antagonist 1 μM; 48 h;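 further: percentage of PHF fibroblasts positive for each marker, cultured in fresh plasma from a healthy donor, six replicates, with fibroblasts cultured alone as reference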
Experimental: as §1

[4] = system: fibroblasts (PHF) co-cultivated with tumor cell lymphoblastic leukemia B (SDI); assay: Marker expression (IHC) in PHF co-cultured with SDI tumor cells; format: cell-based, human; conditions: PHF co-cultivated with SDI + SP + NK1 antagonist
Experimental: as §1

[5] = system: human primary macrophages (PHM); assay: Marker expression (immunohistochemistry) in human primary macrophages with SP alone or with NK1 antagonists; format: cell-based; conditions: SP 1 μM + antagonist 1 μM; 48 h
Experimental: In this sense the next step was to analyze the effect exerted by the treatment with non-peptide NK1 antagonists in human primary macrophages (PHM) obtained and purified from pleural effusion samples obtained from men with chronic age range between 45 and 55 years. Briefly, the pleural fluid from chronic (rich in macrophages) was centrifuged.
After 48 hours of culture, cells were harvested and cellular paraffin blocks were constructed for immunohistochemical analysis (see Example 1). To analyze the expression of markers EGF, MMP-9, VEGF and IL-8 antibodies were used as follows: EGF (rabbit monoclonal antibody, anti-EGF; 07-1432. Merck-Millipore), MMP-9 (polyclonal rabbit anti-MMP-9: SAB4501896, Sigma-Aldrich), VEGF (mouse monoclonal anti-VEGF, GF25-100UG, Merck-Millipore) and TNF-α (mouse monoclonal anti-TNF-α, number MAB 1021 catalogue, obtained from Merck-Millipore). All of these antibodies were used at a concentration of 1/1000. System for labelling with a secondary antibody specific for the primary antibodies obtained from rabbit or mouse was used, as was necessary in each case, both the Envision (Dako). All experiments were carried out sixfold.

[6] = co-culture with cells isolated from breast carcinoma
[7] = co-culture with cells isolated from colon carcinoma
[8] = co-culture with cells isolated from lung carcinoma
[9] = co-culture with cells isolated from melanoma
[10] = co-culture with cells isolated from ovarian carcinoma

CC(=O)N1CCN([C@H]2CCN(C(=O)N(C)[C@H](C)c3cc(C(F)(F)F)cc(C(F)(F)F)c3)[C@@H](c3ccc(F)cc3C)C2)CC1 [Casopitant]
0%: PHF cells expressing MMP-3 [1] | PHF cells expressing MMP-7 [1] | PHF cells expressing MMP-9 [1] | PHF cells expressing MMP-11 [1] | PHF cells expressing MMP-13 [1] | PHF cells expressing MMP-14 [1] | PHF cells expressing SPARC [1] | PHF cells expressing TGF-α [1] | PHF cells expressing TGF-β1 [1] | PHF cells expressing TGF-β2 [1] | PHF cells expressing TGF-β3 [1] | Percentage of macrophages which expressed EGF [2, 6] | Percentage of macrophages which expressed MMP-9 [2, 6] | Percentage of macrophages which expressed VEGF [2, 6] | Percentage of macrophages which expressed EGF [2, 7] | Percentage of macrophages which expressed MMP-9 [2, 7] | Percentage of macrophages which expressed VEGF [2, 7] | Percentage of macrophages which expressed EGF [2, 8] | Percentage of macrophages which expressed MMP-9 [2, 8] | Percentage of macrophages which expressed VEGF [2, 8] | Percentage of macrophages which expressed EGF [2, 9] | Percentage of macrophages which expressed MMP-9 [2, 9] | Percentage of macrophages which expressed VEGF [2, 9] | Percentage of macrophages which expressed EGF [2, 10] | Percentage of macrophages which expressed MMP-9 [2, 10] | Percentage of macrophages which expressed VEGF [2, 10] | PHF cells expressing MMP-3 [3] | PHF cells expressing MMP-7 [3] | PHF cells expressing MMP-9 [3] | PHF cells expressing MMP-11 [3] | PHF cells expressing MMP-13 [3] | PHF cells expressing MMP-14 [3] | PHF cells expressing SPARC [3] | PHF cells expressing TGF-α [3] | PHF cells expressing TGF-β1 [3] | PHF cells expressing TGF-β2 [3] | PHF cells expressing TGF-β3 [3] | cells expressing MMP-3 [4] | cells expressing MMP-7 [4] | cells expressing MMP-9 [4] | cells expressing MMP-11 [4] | cells expressing MMP-13 [4] | cells expressing MMP-14 [4] | cells expressing SPARC [4] | cells expressing TGF-α [4] | cells expressing TGF-β1 [4] | cells expressing TGF-β2 [4] | cells expressing TGF-β3 [4] | macrophages expressing EGF [5] | macrophages expressing MMP-9 [5] | macrophages expressing VEGF [5]

Cc1cc(F)ccc1[C@H]1CNCCN1C(=O)N(C)[C@H](C)c1cc(C(F)(F)F)cc(C(F)(F)F)c1 [Vestipitant]
0%: PHF cells expressing MMP-3 [1] | PHF cells expressing MMP-7 [1] | PHF cells expressing MMP-9 [1] | PHF cells expressing MMP-11 [1] | PHF cells expressing MMP-13 [1] | PHF cells expressing MMP-14 [1] | PHF cells expressing SPARC [1] | PHF cells expressing TGF-α [1] | PHF cells expressing TGF-β1 [1] | PHF cells expressing TGF-β2 [1] | PHF cells expressing TGF-β3 [1] | Percentage of macrophages which expressed EGF [2, 6] | Percentage of macrophages which expressed MMP-9 [2, 6] | Percentage of macrophages which expressed VEGF [2, 6] | Percentage of macrophages which expressed EGF [2, 7] | Percentage of macrophages which expressed MMP-9 [2, 7] | Percentage of macrophages which expressed VEGF [2, 7] | Percentage of macrophages which expressed EGF [2, 8] | Percentage of macrophages which expressed MMP-9 [2, 8] | Percentage of macrophages which expressed VEGF [2, 8] | Percentage of macrophages which expressed EGF [2, 9] | Percentage of macrophages which expressed MMP-9 [2, 9] | Percentage of macrophages which expressed VEGF [2, 9] | Percentage of macrophages which expressed EGF [2, 10] | Percentage of macrophages which expressed MMP-9 [2, 10] | Percentage of macrophages which expressed VEGF [2, 10] | PHF cells expressing MMP-3 [3] | PHF cells expressing MMP-7 [3] | PHF cells expressing MMP-9 [3] | PHF cells expressing MMP-11 [3] | PHF cells expressing MMP-13 [3] | PHF cells expressing MMP-14 [3] | PHF cells expressing SPARC [3] | PHF cells expressing TGF-α [3] | PHF cells expressing TGF-β1 [3] | PHF cells expressing TGF-β2 [3] | PHF cells expressing TGF-β3 [3] | cells expressing MMP-3 [4] | cells expressing MMP-7 [4] | cells expressing MMP-9 [4] | cells expressing MMP-11 [4] | cells expressing MMP-13 [4] | cells expressing MMP-14 [4] | cells expressing SPARC [4] | cells expressing TGF-α [4] | cells expressing TGF-β1 [4] | cells expressing TGF-β2 [4] | cells expressing TGF-β3 [4] | macrophages expressing EGF [5] | macrophages expressing MMP-9 [5] | macrophages expressing VEGF [5]
